Assay results from patent US10143691B2, “Pathogenic control of apoptosis” (CSIR, priority 2014, dated 2018).
Entries after “also recorded” stand apart in the source; their conditions may differ.

Columns and labels:
Format in all cases: cell-based
H2A.XpSer139 = assay: Immunofluorescence staining of double strand breaks (H2A.XpSer139)
Protocol: (§1) For each experiment, Ghost(3) cells or IPSC-derived primary macrophages were infected or treated with 500 nM Doxorubicin on coverslips, fixed for 10 mins in fresh 4% paraformaldehyde at room temperature, then washed 3 times in PBS and permeabilised for 10 mins in ice-cold methanol at […]. Coverslips were washed once in PBS and incubated in blocking buffer (5% goat serum, 0.3% TritonX100 in PBS) for 60 mins at room temperature. Cells were incubated in primary antibody solution (1% BSA, 0.3% Triton X100 in PBS) overnight at 4° C. Double strand breaks were detected using rabbit polyclonal anti-phosphohistone H2A.X Ser139 (Cell Signaling). Activated ATM was detected using rabbit monoclonal anti-phosphoATM Ser1981 (Cell Signaling). The ability of p53 to regulate apoptosis was detected using rabbit polyclonal antiphosphop53 Ser46 (Cell Signaling). Viral p24 was detected using mouse monoclonal anti-HIV1p24 (AIDS Research and Reference Reagent Program, Division of AIDS, NIAID, NIH). HuR was detected using mouse monoclonal anti-HuR 3A2 (Santa Cruz Biotechnology). hnRNPK was detected using goat polyclonal anti-hnRNPK P20 (Santa Cruz Biotechnology). Coverslips were washed 3 times (5 mins each on an orbital shaker) with wash buffer (0.05% Tween20 in PBS), followed by incubation with secondary antibodies conjugated to either Atto550 or Atto565 or Atto647 for 60 mins at room temperature. Coverslips were washed 3 times (5 mins each on an orbital shaker) with wash buffer (0.05% Tween20 in PBS). Coverslips were incubated in equilibration buffer (0.4% glucose, 2×SCC) for 5 mins and counter stained with 1 mg/ml DAPI (4′,6-diamidino-2-phenylindole; Life Technologies). Coverslips were mounted in glox buffer (3.7 mg/ml glucose oxidase, 1 U catalase) and imaged.
(§2) For each experiment, cells were infected or treated with drugs on coverslips, fixed for 10 mins in fresh 4% paraformaldehyde at room temperature, then washed 3 times in PBS and permeabilised for 10 mins in ice-cold methanol at −20° C. Coverslips were washed once in PBS and incubated in blocking buffer (5% goat serum, 0.3% Triton-X100 in PBS) for 60 mins at room temperature. […] Double strand breaks were detected using rabbit polyclonal anti-phospho-histone H2A.X Ser139 (Cell Signaling). Activated ATM was detected using rabbit monoclonal anti-phospho-ATM Ser1981 (Cell Signaling). The ability of p53 to regulate apoptosis was detected using rabbit polyclonal anti-phospho-p53 Ser46 (Cell Signaling). Viral p24 was detected using mouse monoclonal anti-HIV-1-p24 (AIDS Research and Reference Reagent Program, Division of AIDS, NIAID, NIH). HuR was detected using mouse monoclonal anti-HuR 3A2 (Santa Cruz Biotechnology). hnRNP-K was detected using goat polyclonal anti-hnRNP-K P-20 (Santa Cruz Biotechnology). […]

hnRNP-K = assay: Immunofluorescence of hnRNP-K cellular location in Ghost(3) cells
Protocol: as §1
For each experiment, cells were infected or treated with drugs on coverslips, fixed for 10 mins in fresh 4% paraformaldehyde at room temperature, then washed 3 times in PBS and permeabilised for 10 mins in ice-cold methanol at −20° C. Coverslips were washed once in PBS and incubated in blocking buffer (5% goat serum, 0.3% Triton-X100 in PBS) for 60 mins at room temperature. Cells were incubated in primary antibody solution (1% BSA, 0.3% Triton X-100 in PBS) overnight at 4° C. Double strand breaks were detected using rabbit polyclonal anti-phospho-histone H2A.X Ser139 (Cell Signaling). Activated ATM was detected using rabbit monoclonal anti-phospho-ATM Ser1981 (Cell Signaling). The ability of p53 to regulate apoptosis was detected using rabbit polyclonal anti-phospho-p53 Ser46 (Cell Signaling). Viral p24 was detected using mouse monoclonal anti-HIV-1-p24 (AIDS Research and Reference Reagent Program, Division of AIDS, NIAID, NIH). HuR was detected using mouse monoclonal anti-HuR 3A2 (Santa Cruz Biotechnology). hnRNP-K was detected using goat polyclonal anti-hnRNP-K P-20 (Santa Cruz Biotechnology). Coverslips were washed 3 times (5 mins each on an orbital shaker) with wash buffer (0.05% Tween-20 in PBS), followed by incubation with secondary antibodies conjugated to either Atto-550 or Atto-565 or Atto-647 for 60 mins at room temperature. Coverslips were washed 3 times (5 mins each on an orbital shaker) with wash buffer (0.05% Tween-20 in PBS). Coverslips were incubated in equilibration buffer (0.4% glucose, 2×SCC) for 5 mins and counter stained with 1 mg/ml DAPI (4′,6-diamidino-2-phenylindole; Life Technologies). Coverslips were mounted in glox buffer (3.7 mg/ml glucose oxidase, 1 U catalase) and imaged.

ATMpSer1981 = assay: Immunofluorescence staining of activated ATM (ATMpSer1981); settings: Ghost(3) cells, Doxorubicin 500 nM, no HIV
Protocol: as §1, with “Coverslips were washed 3 times (5 mins each on an orbital shaker) with wash buffer (0.05% Tween20 in PBS). Coverslips were incubated in equilibration buffer (0.4% glucose, 2×SCC) for 5 mins and counter stained with 1 mg/ml DAPI (4′,6-diamidino-2-phenylindole; Life Technologies). Coverslips were mounted in glox buffer (3.7 mg/ml glucose oxidase, 1 U catalase) and imaged.” left out

HuR = assay: Immunofluorescence of HuR cellular location in Ghost(3) cells; settings: Ghost(3) cells, Doxorubicin-treated, no HIV
Protocol: as §1, with “Coverslips were washed 3 times (5 mins each on an orbital shaker) with wash buffer (0.05% Tween20 in PBS), followed by incubation with secondary antibodies conjugated to either Atto550 or Atto565 or Atto647 for 60 mins at room temperature. Coverslips were washed 3 times (5 mins each on an orbital shaker) with wash buffer (0.05% Tween20 in PBS). Coverslips were incubated in equilibration buffer (0.4% glucose, 2×SCC) for 5 mins and counter stained with 1 mg/ml DAPI (4′,6-diamidino-2-phenylindole; Life Technologies). Coverslips were mounted in glox buffer (3.7 mg/ml glucose oxidase, 1 U catalase) and imaged.” left out
as §2, with “C.” for “C. Coverslips were washed once in PBS and incubated in blocking buffer (5% goat serum, 0.3% Triton-X100 in PBS) for 60 mins at room temperature.”

## COc1cccc2c1C(=O)c1c(O)c3c(c(O)c1C2=O)C[C@@](O)(C(=O)CO)C[C@@H]3O[C@H]1C[C@H](N)[C@H](O)[C@H](C)O1 [Doxorubicin]
H2A.XpSer139; Ghost(3) cells infected with HIV-1 24 hours prior to Doxorubicin treatment
  DSBs (H2A.XpSer139 staining): numerous DSBs
H2A.XpSer139; Ghost(3) cells infected with HIV-1 after exposure to Doxorubicin
  DSBs (H2A.XpSer139 staining): extensive H2A.XpSer139 staining
H2A.XpSer139; uninfected Ghost(3) cells, lethal dose of Doxorubicin (500 nM)
  H2A.X (pSer139) staining of DSBs: extensive H2A.X staining within 8 hours of treatment; also recorded: extensive H2A.XpSer139 staining
hnRNP-K; Ghost(3) cells, drug only, no HIV infection
  cellular location of hnRNP-K: nuclear hnRNP-K within 2 hours; also recorded: detected in the nucleus of Doxorubicin-treated cells between 2 and 4 hours post-treatment; also recorded: nuclear hnRNPK within 2 hours
hnRNP-K; cells concurrently infected and treated with Maraviroc, Tenofovir or Raltegravir, Doxorubicin added afterwards
  cellular location of hnRNP-K: hnRNPK localized to the nucleus; also recorded: nuclear hnRNPK within 3 hours of chemical-induced DNA damage
ATMpSer1981
  phosphorylation of ATM at Ser1981: phosphorylation of both ATMpSer1981 and p53pSer46 in the nucleus within 8 hours; also recorded: Phosphorylated ATM is detected
HuR
  cellular location of HuR: cytoplasmic HuR within 8 hours; also recorded: moved from the nucleus into the cytoplasm within 8 hours of treatment
